{"source": "patent US20240226285A9", "about": "“IMMUNOSTIMULATORY COMPOSITIONS” (Bayer Animal Health GmbH, priority 2020, published 2024)", "key": {"NF-κB pathway": {"test_system": "NF-κB pathway", "experiment": "NF-κB dependent pathway readout (SEAP, pNPP assay) in J774-Dual reporter cell line", "type": "cell-based, murine", "conditions": "for activation of the NF-κB pathway (SEAP levels) compared to untreated J774-DUAL / activation of the NF-κB pathway (increase of SEAP levels in supernatant, normalized to protein content): J774-DUAL cells, 48 h; for activation of the NF-κB pathway (increase of SEAP levels in supernatant, normalized to protein content): FIG. 1, class C ODN, oligonucleotide-liposome complexes, 1.85 μg/mL oligonucleotide", "description": "(§1) J774-DUAL™ cells (InvivoGen, murine NF-kB & IRF Reporter macrophage-like cells) were grown in Dulbecco's minimum essential medium (DMEM) with high D-glucose content, 1 mM sodium pyruvate and 4 mM stable glutamine. DMEM was supplemented with 10% FBS, 50 μg/mL streptomycin, 50 U/mL penicillin G and 100 μg/mL Normocin™. Every other week, the culture medium was additionally supplemented with 200 μg/mL Zeocin™ and 20 μg/mL Blasticidin.\n(§2) For experimental series, serum free DMEM without phenol red was prepared containing 1 mM sodium pyruvate, 4 mM L-glutamine, 50 μg/mL streptomycin, 50 U/mL penicillin G, 100 μg/mL Normocin™, 200 μg/mL Zeocin™ and 20 μg/mL Blasticidin. J774-DUAL™ cell line was split once per week with a splitting ratio of 1:4.\n(§3) J774-DUAL™ cells were cultivated in a Heracell™ 150 incubator (Thermo Scientific) at 37° C. with 5% C02 and 95% humidified air. For seeding, cells were counted using a Neubauer bright line hemocytometer (Marienfeld) with a volume 0.1 mm^3. Cell lines were regularly checked for absence of mycoplasmic contamination.\nJ774-Dual™ is a reporter cell line provided by Invivogen, which enables the simultaneous investigation of signal transduction resulting in the activation of the NF-κB and/or the IRF pathway.\nJ774-Dual™ cells express secreted embryonic alkaline phosphatase (SEAP) under the control of the NF-κB pathway. SEAP is secreted into the cell culture supernatant. Thus, a semi-quantitative analysis of NF-κB activation is possible (Invivogen product information (“J774-Dual Cells|NF-κB & IRF/IFN Reporter Macrophage” n.d., 774)). p-Nitrophenyl phosphate (pNPP) is a widely utilized chromogenic chemical for rapid determination of alkaline phosphatase activity. In the presence of alkaline phosphatase the substance is hydrolyzed into phosphate and the yellow para-Nitrophenol which can be measured spectrophotometrically (Bessey, Otto A., O. H. Lowky, and Mary Jane Brock. “A method for the rapid determination of alkaline phosphatase with five cubic millimeters of serum.” Journal of Biological Chemistry 164 (1946): 321-329.).\nCells were seeded with a density of 1×10^5 cells per well into 96-well microplates and given 24 h for adherence. The culture medium was removed and the cells were incubated with either naked CpG nucleic acids, liposomes or liposome-nucleic acid complexes in serum-free medium at 37° C. with 5% CO2 and 95% humidified air (Heracell™ 150, Thermo Scientific). Liposome with a LC20>40 μM were included in the experimental series. After 48 h of incubation 100 μL supernatant of each sample were transferred into 96-well microplates (SpectraPlate™-96 TC, Perkin Elmer) and analyzed spectrophotometrically using a p-Nitrophenyl phosphate assay.\nTo this end, 100 μL pNPP working reagent consisting of 20 mM pNPP in 50 mM NaHCO3 buffer (pH 9.6) were added to each well containing samples, controls or calibration standards. After the incubation of the mixture at 37° C. for 1 h, absorbance was determined using Victor3™ V multimode plate reader (Perkin Elmer) equipped with a 405 nm absorbance filter. Lipopolysaccharide from Salmonella anterica serotype Minnesota was applied as calibration standard to determine the linear range of the assay and as positive control. All experiments were conducted in triplicate.\nRaw data was normalized to 10 μg/mL protein content and the average value of the untreated control was subtracted."}, "IRF pathway": {"test_system": "IRF pathway", "experiment": "Interferon regulatory factor (IRF) pathway readout (Lucia luciferase, QUANTI-Luc) in J774-Dual reporter cell line", "type": "cell-based, murine", "conditions": "ODN complexed with liposomes comprising DOTAP+DOPE, DOTMA+DOPE or DDA+DOPE; 40 μM liposomal lipids, 1.85 μg/mL ODN; J774-DUAL cells, 48 h", "description": "as §1, §2\nas §3, with “contamination. […]” for “contamination.”\nJ774-Dual™ cells also express the Lucia luciferase gene under the control of the IRF pathway. […] By using QUANTI-Luc™ reagent, a semi-quantitative analysis of IRF activation is thus possible (Invivogen product information (“J774-Dual Cells|NF-κB & IRF/IFN Reporter Macrophage” n.d., 774).\nCells were seeded with a density of 1×10^5 cells per well into 96-well microplates and given 24 h for adherence. […] After 48 h of incubations, 50 μL supernatant of each sample were transferred into 96-well microplates (OptiPlate™-96 HS, Perkin Elmer) and analyzed using QUANTI-Luc™ luminescence assay according to the manufacturer's instructions.\nQUANTI-Luc™ reagent was dissolved in 25 mL endotoxin-free water, and 50 μL were added to each well containing samples, controls or calibration standards. Luminescence was immediately determined using EnSpire® multimode plate reader (Perkin Elmer) and measured as relative light units (RLU). […]"}}, "data": [{"substance": "ODN 1668: class B immunostimulatory CpG oligonucleotide, SEQ ID NO. 3 (DNA TCCATGACGTTCCTGATGCT; listed as DNA, chemistry not given here)", "values": [{"measurement": "activation of the NF-κB pathway (SEAP levels) compared to untreated J774-DUAL", "setting": "NF-κB pathway; FIG. 3, ODN complexed with liposomes, 40 μM liposomal lipids, 1.85 μg/mL ODN", "value": "increased NF-κB pathway activation"}, {"measurement": "immunostimulatory potency (NF-κB pathway) of complexes compared to the uncomplexed ODN", "setting": "NF-κB pathway; FIG. 3, all liposome complexes except those with liposomes comprising DOTMA+DOPE, 40 μM lipids, 1.85 μg/mL ODN", "value": "not significantly improved"}, {"measurement": "activation of the NF-κB pathway (SEAP levels) compared to untreated J774-DUAL", "setting": "NF-κB pathway; FIG. 3, uncomplexed (naked) ODN 1.85 μg/mL", "value": "increased NF-κB pathway activation"}, {"measurement": "activation of the IRF pathway (increase of luciferase levels in supernatant, normalized to protein content)", "setting": "IRF pathway", "value": "potent IRF pathway activation was observed"}]}, {"substance": "ODN 2395: class C immunostimulatory CpG oligonucleotide, SEQ ID NO. 1 (TCGTCGTTTTCGGCGCGCGCCG; listed as DNA, chemistry not given here)", "values": [{"measurement": "activation of the NF-κB pathway (increase of SEAP levels in supernatant, normalized to protein content)", "setting": "NF-κB pathway; 40 μM liposomal lipids", "value": "potent NF-κB pathway activation was not observed"}, {"measurement": "activation of the IRF pathway (increase of luciferase levels in supernatant, normalized to protein content)", "setting": "IRF pathway", "value": "potent IRF pathway activation was observed"}]}, {"substance": "ODN M362: class C immunostimulatory CpG oligonucleotide, SEQ ID NO. 2 (TCGTCGTCGTTCGAACGACGTTGAT; listed as DNA, chemistry not given here)", "values": [{"measurement": "activation of the NF-κB pathway (increase of SEAP levels in supernatant, normalized to protein content)", "setting": "NF-κB pathway; 40 μM liposomal lipids", "value": "potent NF-κB pathway activation was not observed"}, {"measurement": "activation of the IRF pathway (increase of luciferase levels in supernatant, normalized to protein content)", "setting": "IRF pathway", "value": "potent IRF pathway activation was observed"}]}]}
